Test results as given in US20230085307A1, “PYRIDAZINONE COMPOUND AND HERBICIDE” (NISSAN CHEMICAL CORPORATION, priority 2019, published 2023).

Legend:
windgrass [1] = test: Test Example 5: herbicidal effect by foliage application, plastic box (Table 20, symbol L); assay type: in vivo, windgrass (Apera spica-venti); settings: amount of applied herbicide 320 g/ha; foliage application after 14-day growth; evaluated three weeks after application
Summary of the method: (§1)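 Plants were sown into sterilized diluvial soil under about 1.5 cm cover and kept in a greenhouse at 25° C. to 30° C. Fourteen days on, foliage received an even spray of the diluted emulsion. Herbicidal or crop effect was judged three weeks afterwards.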

redroot pigweed [2] = test: Test Example 4: herbicidal effect by soil treatment (Table 19, symbol N); assay type: in vivo, redroot pigweed (Amaranthus retroflexus); settings: amount of applied herbicide 320 g/ha
Summary of the method: (§2)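 Pre-emergence style soil spray: seeds under ~1.5 cm sterilized diluvial soil received a uniform coat of emulsion diluted to the predetermined herbicide amount. Greenhouse 25–30° C; readout at week three on previously defined criteria.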

barnyard grass [3] = test: Test Example 5: herbicidal effect by foliage application, plastic box (Table 20, symbol H); assay type: in vivo, barnyard grass (Echinochloa crus-galli); settings: amount of applied herbicide 320 g/ha; foliage application after 14-day growth; evaluated three weeks after application
Summary of the method: as §1

persian speedwell [4] = test: Test Example 5: herbicidal effect by foliage application, plastic box (Table 20, symbol R); assay type: in vivo, Persian speedwell (Veronica persica); settings: amount of applied herbicide 320 g/ha; foliage application after 14-day growth; evaluated three weeks after application
Summary of the method: as §1

lambsquarters [5] = test: Test Example 4: herbicidal effect by soil treatment (Table 19, symbol O); assay type: in vivo, lambsquarters (Chenopodium album); settings: amount of applied herbicide 320 g/ha
Summary of the method: as §2

Italian ryegrass [6] = test: Test Example 4: herbicidal effect by soil treatment (Table 19, symbol K); assay type: in vivo, Italian ryegrass (Lolium multiflorum); settings: amount of applied herbicide 320 g/ha
Summary of the method: as §2

wild oat [7] = test: Test Example 5: herbicidal effect by foliage application, plastic box (Table 20, symbol I); assay type: in vivo, wild oat (Avena fatua); settings: amount of applied herbicide 320 g/ha; foliage application after 14-day growth; evaluated three weeks after application
Summary of the method: as §1

lambsquarters [8] = test: Test Example 5: herbicidal effect by foliage application, plastic box (Table 20, symbol O); assay type: in vivo, lambsquarters (Chenopodium album); settings: amount of applied herbicide 320 g/ha; foliage application after 14-day growth; evaluated three weeks after application
Summary of the method: as §1

windgrass [9] = test: Test Example 4: herbicidal effect by soil treatment (Table 19, symbol L); assay type: in vivo, windgrass (Apera spica-venti); settings: amount of applied herbicide 320 g/ha
Summary of the method: as §2

chickweed [10] = test: Test Example 4: herbicidal effect by soil treatment (Table 19, symbol P); assay type: in vivo, common chickweed (Stellaria media); settings: amount of applied herbicide 320 g/ha
Summary of the method: as §2

green foxtail [11] = test: Test Example 4: herbicidal effect by soil treatment (Table 19, symbol G); assay type: in vivo, green foxtail (Setaria viridis); settings: amount of applied herbicide 320 g/ha
Summary of the method: as §2

southern crabgrass [12] = test: Test Example 5: herbicidal effect by foliage application, plastic box (Table 20, symbol F); assay type: in vivo, southern crabgrass (Digitaria ciliaris); settings: amount of applied herbicide 320 g/ha; foliage application after 14-day growth; evaluated three weeks after application
Summary of the method: as §1

chickweed [13] = test: Test Example 5: herbicidal effect by foliage application, plastic box (Table 20, symbol P); assay type: in vivo, common chickweed (Stellaria media); settings: amount of applied herbicide 320 g/ha; foliage application after 14-day growth; evaluated three weeks after application
Summary of the method: as §1

velvetleaf [14] = test: Test Example 4: herbicidal effect by soil treatment (Table 19, symbol M); assay type: in vivo, velvetleaf (Abutilon theophrasti); settings: amount of applied herbicide 320 g/ha
Summary of the method: as §2

redroot pigweed [15] = test: Test Example 5: herbicidal effect by foliage application, plastic box (Table 20, symbol N); assay type: in vivo, redroot pigweed (Amaranthus retroflexus); settings: amount of applied herbicide 320 g/ha; foliage application after 14-day growth; evaluated three weeks after application
Summary of the method: as §1

southern crabgrass [16] = test: Test Example 4: herbicidal effect by soil treatment (Table 19, symbol F); assay type: in vivo, southern crabgrass (Digitaria ciliaris); settings: amount of applied herbicide 320 g/ha
Summary of the method: as §2

blackgrass [17] = test: Test Example 5: herbicidal effect by foliage application, plastic box (Table 20, symbol J); assay type: in vivo, blackgrass (Alopecurus myosuroides); settings: amount of applied herbicide 320 g/ha; foliage application after 14-day growth; evaluated three weeks after application
Summary of the method: as §1

Italian ryegrass [18] = test: Test Example 5: herbicidal effect by foliage application, plastic box (Table 20, symbol K); assay type: in vivo, Italian ryegrass (Lolium multiflorum); settings: amount of applied herbicide 320 g/ha; foliage application after 14-day growth; evaluated three weeks after application
Summary of the method: as §1

blackgrass [19] = test: Test Example 4: herbicidal effect by soil treatment (Table 19, symbol J); assay type: in vivo, blackgrass (Alopecurus myosuroides); settings: amount of applied herbicide 320 g/ha
Summary of the method: as §2

wild oat [20] = test: Test Example 4: herbicidal effect by soil treatment (Table 19, symbol I); assay type: in vivo, wild oat (Avena fatua); settings: amount of applied herbicide 320 g/ha
Summary of the method: as §2

barnyard grass [21] = test: Test Example 3: herbicidal effect by foliage application, Wagner pot (Table 18, symbol H); assay type: in vivo, barnyard grass (Echinochloa crus-galli); settings: 320 g/ha
Summary of the method: (§3)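 Plants were sown in alluvial soil held under 0.1–0.5 cm standing water and grown 14 days in a greenhouse at 25–30 °C. An emulsifiable formulation, water-diluted to the set dose, was then sprayed onto the foliage, and effects were scored three weeks later using previously defined criteria.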

velvetleaf [22] = test: Test Example 5: herbicidal effect by foliage application, plastic box (Table 20, symbol M); assay type: in vivo, velvetleaf (Abutilon theophrasti); settings: amount of applied herbicide 320 g/ha; foliage application after 14-day growth; evaluated three weeks after application
Summary of the method: as §1

barnyard grass [23] = test: Test Example 4: herbicidal effect by soil treatment (Table 19, symbol H); assay type: in vivo, barnyard grass (Echinochloa crus-galli); settings: amount of applied herbicide 320 g/ha
Summary of the method: as §2

green foxtail [24] = test: Test Example 5: herbicidal effect by foliage application, plastic box (Table 20, symbol G); assay type: in vivo, green foxtail (Setaria viridis); settings: amount of applied herbicide 320 g/ha; foliage application after 14-day growth; evaluated three weeks after application
Summary of the method: as §1

rice flat sedge = test: Test Example 3: herbicidal effect by foliage application, Wagner pot (Table 18, symbol E); assay type: in vivo, rice flat sedge (Cyperus iria); settings: 320 g/ha
Summary of the method: as §3

persian speedwell [25] = test: Test Example 4: herbicidal effect by soil treatment (Table 19, symbol R); assay type: in vivo, Persian speedwell (Veronica persica); settings: amount of applied herbicide 320 g/ha
Summary of the method: as §2

Chinese sprangletop = test: Test Example 3: herbicidal effect by foliage application, Wagner pot (Table 18, symbol D); assay type: in vivo, chinese sprangletop (Leptochloa chinensis); settings: 320 g/ha
Summary of the method: as §3

Cc1nn(C)c(=O)c(-c2c(-c3ccc(C#N)cc3)sc3cc(F)c(F)cc23)c1O [5-025]
Herbicidal effect by foliage application, L: windgrass (windgrass [1]): 5 (Herbicidal rate of 90% or more (almost completely withered))
N: redroot pigweed, herbicidal effect grade (redroot pigweed [2]): 5 (Herbicidal rate of 90% or more (almost completely withered))
Herbicidal effect by foliage application, H: barnyard grass (barnyard grass [3]): 1 (Herbicidal rate of 5% or more and less than 20%)
Herbicidal effect by foliage application, R: persian speedwell (persian speedwell [4]): 5 (Herbicidal rate of 90% or more (almost completely withered))
O: lambsquarters, herbicidal effect grade (lambsquarters [5]): 5 (Herbicidal rate of 90% or more (almost completely withered))
K: Italian ryegrass, herbicidal effect grade (Italian ryegrass [6]): 1 (Herbicidal rate of 5% or more and less than 20%)
Herbicidal effect by foliage application, I: wild oat (wild oat [7]): 3 (Herbicidal rate of 40% or more and less than 70%)
Herbicidal effect by foliage application, O: lambsquarters (lambsquarters [8]): 5 (Herbicidal rate of 90% or more (almost completely withered))
L: windgrass, herbicidal effect grade (windgrass [9]): 0 (Herbicidal rate of 5% or less (almost no effect))
P: chickweed, herbicidal effect grade (chickweed [10]): 3 (Herbicidal rate of 40% or more and less than 70%)
G: green foxtail, herbicidal effect grade (green foxtail [11]): 4 (Herbicidal rate of 70% or more and less than 90%)
Herbicidal effect by foliage application, F: southern crabgrass (southern crabgrass [12]): 3 (Herbicidal rate of 40% or more and less than 70%)
Herbicidal effect by foliage application, P: chickweed (chickweed [13]): 5 (Herbicidal rate of 90% or more (almost completely withered))
M: velvetleaf, herbicidal effect grade (velvetleaf [14]): 3 (Herbicidal rate of 40% or more and less than 70%)
Herbicidal effect by foliage application, N: redroot pigweed (redroot pigweed [15]): 5 (Herbicidal rate of 90% or more (almost completely withered))
F: southern crabgrass, herbicidal effect grade (southern crabgrass [16]): 1 (Herbicidal rate of 5% or more and less than 20%)
Herbicidal effect by foliage application, J: blackgrass (blackgrass [17]): 1 (Herbicidal rate of 5% or more and less than 20%)
Herbicidal effect by foliage application, K: Italian ryegrass (Italian ryegrass [18]): 1 (Herbicidal rate of 5% or more and less than 20%)
J: blackgrass, herbicidal effect grade (blackgrass [19]): 0 (Herbicidal rate of 5% or less (almost no effect))
I: wild oat, herbicidal effect grade (wild oat [20]): 1 (Herbicidal rate of 5% or more and less than 20%)
herbicidal effect on barnyard grass (H) (barnyard grass [21]): 3 (Herbicidal rate of 40% or more and less than 70%)
Herbicidal effect by foliage application, M: velvetleaf (velvetleaf [22]): 5 (Herbicidal rate of 90% or more (almost completely withered))
H: barnyard grass, herbicidal effect grade (barnyard grass [23]): 3 (Herbicidal rate of 40% or more and less than 70%)
Herbicidal effect by foliage application, G: green foxtail (green foxtail [24]): 4 (Herbicidal rate of 70% or more and less than 90%)
herbicidal effect on rice flat sedge (E) (rice flat sedge): 4 (Herbicidal rate of 70% or more and less than 90%)
R: persian speedwell, herbicidal effect grade (persian speedwell [25]): 4 (Herbicidal rate of 70% or more and less than 90%)
herbicidal effect on Chinese sprangletop (D) (Chinese sprangletop): 4 (Herbicidal rate of 70% or more and less than 90%)

Cc1nn(C)c(=O)c(-c2c(-c3ccc4c(c3)OCO4)sc3cc(F)c(F)cc23)c1O [5-035]
Herbicidal effect by foliage application, L: windgrass (windgrass [1]): 5 (Herbicidal rate of 90% or more (almost completely withered))
N: redroot pigweed, herbicidal effect grade (redroot pigweed [2]): 1 (Herbicidal rate of 5% or more and less than 20%)
Herbicidal effect by foliage application, H: barnyard grass (barnyard grass [3]): 2 (Herbicidal rate of 20% or more and less than 40%)
Herbicidal effect by foliage application, R: persian speedwell (persian speedwell [4]): 5 (Herbicidal rate of 90% or more (almost completely withered))
O: lambsquarters, herbicidal effect grade (lambsquarters [5]): 3 (Herbicidal rate of 40% or more and less than 70%)
K: Italian ryegrass, herbicidal effect grade (Italian ryegrass [6]): 0 (Herbicidal rate of 5% or less (almost no effect))
Herbicidal effect by foliage application, I: wild oat (wild oat [7]): 0 (Herbicidal rate of 5% or less (almost no effect))
Herbicidal effect by foliage application, O: lambsquarters (lambsquarters [8]): 5 (Herbicidal rate of 90% or more (almost completely withered))
L: windgrass, herbicidal effect grade (windgrass [9]): 0 (Herbicidal rate of 5% or less (almost no effect))
P: chickweed, herbicidal effect grade (chickweed [10]): 1 (Herbicidal rate of 5% or more and less than 20%)
G: green foxtail, herbicidal effect grade (green foxtail [11]): 2 (Herbicidal rate of 20% or more and less than 40%)
Herbicidal effect by foliage application, F: southern crabgrass (southern crabgrass [12]): 1 (Herbicidal rate of 5% or more and less than 20%)
Herbicidal effect by foliage application, P: chickweed (chickweed [13]): 5 (Herbicidal rate of 90% or more (almost completely withered))
M: velvetleaf, herbicidal effect grade (velvetleaf [14]): 0 (Herbicidal rate of 5% or less (almost no effect))
Herbicidal effect by foliage application, N: redroot pigweed (redroot pigweed [15]): 5 (Herbicidal rate of 90% or more (almost completely withered))
F: southern crabgrass, herbicidal effect grade (southern crabgrass [16]): 1 (Herbicidal rate of 5% or more and less than 20%)
Herbicidal effect by foliage application, J: blackgrass (blackgrass [17]): 0 (Herbicidal rate of 5% or less (almost no effect))
Herbicidal effect by foliage application, K: Italian ryegrass (Italian ryegrass [18]): 0 (Herbicidal rate of 5% or less (almost no effect))
J: blackgrass, herbicidal effect grade (blackgrass [19]): 0 (Herbicidal rate of 5% or less (almost no effect))
I: wild oat, herbicidal effect grade (wild oat [20]): 0 (Herbicidal rate of 5% or less (almost no effect))
herbicidal effect on barnyard grass (H) (barnyard grass [21]): 4 (Herbicidal rate of 70% or more and less than 90%)
Herbicidal effect by foliage application, M: velvetleaf (velvetleaf [22]): 5 (Herbicidal rate of 90% or more (almost completely withered))
H: barnyard grass, herbicidal effect grade (barnyard grass [23]): 3 (Herbicidal rate of 40% or more and less than 70%)
Herbicidal effect by foliage application, G: green foxtail (green foxtail [24]): 0 (Herbicidal rate of 5% or less (almost no effect))
herbicidal effect on rice flat sedge (E) (rice flat sedge): 3 (Herbicidal rate of 40% or more and less than 70%)
R: persian speedwell, herbicidal effect grade (persian speedwell [25]): 5 (Herbicidal rate of 90% or more (almost completely withered))
herbicidal effect on Chinese sprangletop (D) (Chinese sprangletop): 3 (Herbicidal rate of 40% or more and less than 70%)
